Reference: US20250345339A1, “DOSES AND REGIMENS OF HER2 INHIBITORS” (IAMBIC THERAPEUTICS, INC., priority 2024, published 2025)
Entries after “also recorded” stand apart in the source; their conditions may differ. One block for each compound: values may come before it.

What was measured:
wtEGFR = wtEGFR (Homo sapiens (Human), UniProt P00533); assay: HotSpot radiometric kinase activity assay, EGFR WT; assay type: biochemical
Method: (§1) The purpose of the wtERBB2, ERBB2-A775_G776insYVMA (ERBB2YVMA), wtEGFR biochemical assay was to evaluate the inhibition (% inhibition and IC50 values) of the small molecule inhibitors by using the “HotSpot” radiometric kinase activity assay. HotSpot assays monitor the […] of kinase substrate by the radioactive gamma phosphate of adenosine triphosphate (33P-ATP) during biochemical reactions. HotSpot assays was performed in steps upon completion of the kinase reaction: deposition of a reaction mixture aliquot onto P81 ion exchange paper, extensive washing of the aforementioned P81 paper using phosphoric acid to remove unbound radiolabeled 33P-ATP from the P81 paper, and finally visualization and quantification of the dried P81 paper utilizing a phosphoimager. […] Typical reaction solutions (10 μL final reaction volume) contained the following buffer conditions: 20 mM Hepes (pH 7.5), 10 mM MgCl2, 1 mM EGTA, 0.01% Brij35, 0.02 mg/mL BSA, 0.1 mM Na3VO4, 2 mM DTT, 1% DMSO. The assay was primed by preparing a fresh 0.2 mg/mL solution of pEY (Sigma Cat: P7244) substrate in the reaction buffer and supplementing that solution with […] of MnCl2 as substrate cofactor (Sigma Cat: M9522). The kinase of interest was then added to the solution at the appropriate concentration (30 nM wtERBB2 from, or 20 nM ERBB2YVMA, or 4 nM wtEGFR) and gently mixed prior to delivery of compound in 100% DMSO by acoustic dispensing (Beckman Echo550). Compound, Kinase, and substrate were allowed to incubate for 20 minutes at room temperature prior to the initiation of the reaction by addition of 33P-ATP (PerkinElmer Cat: NEG602, final conc 10 μM). […] IC50 determinations were made from a plot of kinase activity as a function of inhibitor concentration fit to the 4-parameter IC50 equation with the enzyme concentration held constant using GraphPad Prism (San Diego).

wtERBB2 = wtERBB2 (Homo sapiens (Human), UniProt P04626); assay: HotSpot radiometric kinase activity assay, HER2 WT; assay type: biochemical
Sequence of wtERBB2 (P04626 23-1255): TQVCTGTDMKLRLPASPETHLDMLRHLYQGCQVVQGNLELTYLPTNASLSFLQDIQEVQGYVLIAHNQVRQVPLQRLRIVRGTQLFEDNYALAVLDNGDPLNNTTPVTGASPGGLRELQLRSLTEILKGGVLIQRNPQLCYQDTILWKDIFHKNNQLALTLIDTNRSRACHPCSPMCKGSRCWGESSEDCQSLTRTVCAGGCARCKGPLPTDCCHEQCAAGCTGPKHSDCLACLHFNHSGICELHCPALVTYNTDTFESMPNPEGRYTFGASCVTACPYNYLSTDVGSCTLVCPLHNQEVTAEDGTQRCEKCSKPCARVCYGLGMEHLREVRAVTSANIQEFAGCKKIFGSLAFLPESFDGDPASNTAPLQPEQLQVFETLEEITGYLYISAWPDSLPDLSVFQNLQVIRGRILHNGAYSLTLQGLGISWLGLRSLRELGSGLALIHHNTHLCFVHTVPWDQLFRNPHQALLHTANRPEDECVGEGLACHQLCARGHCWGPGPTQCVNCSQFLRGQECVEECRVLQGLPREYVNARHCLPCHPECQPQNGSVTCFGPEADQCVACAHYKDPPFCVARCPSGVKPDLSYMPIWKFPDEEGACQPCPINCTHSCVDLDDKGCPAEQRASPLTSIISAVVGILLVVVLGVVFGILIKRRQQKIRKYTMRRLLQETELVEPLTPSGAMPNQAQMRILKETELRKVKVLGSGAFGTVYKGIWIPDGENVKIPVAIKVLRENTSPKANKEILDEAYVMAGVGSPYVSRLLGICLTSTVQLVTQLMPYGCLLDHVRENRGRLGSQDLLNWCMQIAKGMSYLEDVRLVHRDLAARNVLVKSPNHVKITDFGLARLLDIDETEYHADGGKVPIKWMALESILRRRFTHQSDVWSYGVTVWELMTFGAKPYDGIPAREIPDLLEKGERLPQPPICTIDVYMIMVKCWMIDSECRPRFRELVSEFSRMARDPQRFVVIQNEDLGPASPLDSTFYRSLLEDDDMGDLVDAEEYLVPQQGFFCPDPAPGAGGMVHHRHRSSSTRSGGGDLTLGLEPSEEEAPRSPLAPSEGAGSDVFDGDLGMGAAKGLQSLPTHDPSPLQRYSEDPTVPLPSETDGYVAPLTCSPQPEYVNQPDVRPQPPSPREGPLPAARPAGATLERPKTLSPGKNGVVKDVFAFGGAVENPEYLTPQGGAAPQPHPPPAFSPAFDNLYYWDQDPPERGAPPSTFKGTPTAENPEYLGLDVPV
Method: as §1

ERBB2-A775_G776insYVMA = ERBB2-A775_G776insYVMA (Homo sapiens (Human), UniProt P04626, INS775YVMA); assay: HotSpot radiometric kinase activity assay, HER2 YVMA; assay type: biochemical
Sequence of ERBB2-A775_G776insYVMA (P04626 other isoform, or with tags, fused parts or gaps del 1-675/ins YVMA behind 775 limits assumed): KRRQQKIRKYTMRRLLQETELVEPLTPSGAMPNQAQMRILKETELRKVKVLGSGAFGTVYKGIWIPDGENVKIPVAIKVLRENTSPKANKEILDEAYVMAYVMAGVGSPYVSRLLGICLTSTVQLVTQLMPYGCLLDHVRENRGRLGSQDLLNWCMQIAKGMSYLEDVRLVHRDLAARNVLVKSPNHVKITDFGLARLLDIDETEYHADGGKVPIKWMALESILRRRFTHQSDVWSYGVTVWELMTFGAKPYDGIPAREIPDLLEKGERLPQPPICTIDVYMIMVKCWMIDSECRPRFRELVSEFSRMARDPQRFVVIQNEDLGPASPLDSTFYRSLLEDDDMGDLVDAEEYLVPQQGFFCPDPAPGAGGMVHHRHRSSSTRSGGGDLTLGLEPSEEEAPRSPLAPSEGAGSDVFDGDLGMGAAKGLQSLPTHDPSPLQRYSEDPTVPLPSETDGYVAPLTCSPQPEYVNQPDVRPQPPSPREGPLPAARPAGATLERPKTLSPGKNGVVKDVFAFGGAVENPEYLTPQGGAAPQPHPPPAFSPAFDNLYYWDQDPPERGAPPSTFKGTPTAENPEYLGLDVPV
Method: as §1

EGFR = EGFR (Homo sapiens (Human), UniProt P00533); assay: Enzyme inactivation kinetics, EGFR; assay type: biochemical; details: Table 23
Sequence of EGFR (P00533 25-1210): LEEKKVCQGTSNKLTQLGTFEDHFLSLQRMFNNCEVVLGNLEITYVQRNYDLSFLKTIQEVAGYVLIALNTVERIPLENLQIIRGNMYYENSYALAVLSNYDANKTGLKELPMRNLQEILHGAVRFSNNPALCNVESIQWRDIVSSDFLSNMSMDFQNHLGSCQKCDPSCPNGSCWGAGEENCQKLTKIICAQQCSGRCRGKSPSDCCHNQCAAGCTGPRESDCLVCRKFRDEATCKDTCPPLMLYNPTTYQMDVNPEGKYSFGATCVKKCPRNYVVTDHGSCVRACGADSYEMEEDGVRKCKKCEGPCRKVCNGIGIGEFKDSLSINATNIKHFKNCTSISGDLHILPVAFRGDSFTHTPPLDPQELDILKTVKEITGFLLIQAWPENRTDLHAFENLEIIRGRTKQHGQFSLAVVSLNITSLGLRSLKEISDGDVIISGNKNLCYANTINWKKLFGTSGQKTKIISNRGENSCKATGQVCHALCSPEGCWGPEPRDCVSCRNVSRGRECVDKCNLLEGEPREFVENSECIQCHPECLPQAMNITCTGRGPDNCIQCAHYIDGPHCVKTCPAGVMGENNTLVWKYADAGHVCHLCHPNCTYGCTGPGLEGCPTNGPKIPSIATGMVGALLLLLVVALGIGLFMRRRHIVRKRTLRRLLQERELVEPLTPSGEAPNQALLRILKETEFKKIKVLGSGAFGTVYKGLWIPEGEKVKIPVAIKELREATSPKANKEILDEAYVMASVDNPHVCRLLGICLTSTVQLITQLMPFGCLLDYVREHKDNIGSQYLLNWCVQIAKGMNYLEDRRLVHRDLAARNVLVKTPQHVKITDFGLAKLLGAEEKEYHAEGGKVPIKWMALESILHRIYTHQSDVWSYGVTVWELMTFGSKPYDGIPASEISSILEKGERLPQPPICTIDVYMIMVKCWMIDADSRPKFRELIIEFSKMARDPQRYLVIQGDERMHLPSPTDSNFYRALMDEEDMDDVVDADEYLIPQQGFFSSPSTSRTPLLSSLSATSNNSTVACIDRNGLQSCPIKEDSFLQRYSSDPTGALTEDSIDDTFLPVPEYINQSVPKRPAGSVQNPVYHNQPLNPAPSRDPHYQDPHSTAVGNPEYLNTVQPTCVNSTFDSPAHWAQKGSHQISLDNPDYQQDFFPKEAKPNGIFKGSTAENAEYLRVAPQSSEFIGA

in vivo = details: mouse, tumor/plasma
[1] = system: BT-474 breast cancer cell line; assay: BT-474 xenograft tumor growth inhibition; assay type: in vivo, mouse; details: clinical reference compounds
Method: The tumor cells were routinely sub-cultured after confluence by trypsin-EDTA treatment, not to exceed 4-5 passages. The cells growing in an exponential growth phase were harvested and counted for tumor inoculation.
Tumor size and body weight measurement was conducted twice weekly.

HCC1954 = HCC1954 xenograft tumor growth inhibition; assay type: in vivo, mouse
Method: HCC1954 cells were thawed and cultured in vitro, and the HCC1954 cells were harvested for in vivo inoculation. After one week of acclimation, 16 female 6-8 weeks-old mice were used. After inoculation, the tumor volume and body weight of the mice were measured three times per week. When the average tumor volume reaches about 200 mm^3, mice were randomly grouped into 2 groups according to the tumor volume and body weight. Test drugs were administrated immediately afterward. Tumor volume and body weight measurements were taken twice a week. At the end of the study, tumor and plasma samples were collected. The mouse grouping and test material treatment for tumor growth inhibition is listed Table 7. Tumor size and body weight measurement were conducted twice weekly. At the end of study, Group 1 and Group 2 were split into 2 sub-groups, dosed and samples collected as described Table 8. At the end of treatment, tumor samples were collected for pharmacodynamic (PD) analysis.

[2] = system: NCI-N87-luciferase gastric cancer cell line; assay: Intracranial NCI-N87-luciferase tumor model; details: for Tumor Growth Inhibition: intracranial NCI-N87, 100 mg/kg QD
Source text: The dosing duration was 37 days, started 12 days after cell inoculation. The dosing Day 1 was Day 12 post cell inoculation.
The total bioluminescent signals (photons/s) emitted from the brains after luciferin injection were used as an indicator of tumor growth and antitumor activity.

MDAMB453 = MDAMB453 breast cancer model; details: 100 mg/kg PO daily for 14 days
KYSE410 = KYSE410 tumor model (HER2+ and KRAS G12C); details: Compound 5 at 250 mg/kg
BaF3 P95Her2 = details: 100 mg/kg PO daily for 20 days
JIMT-1 = JIMT-1 breast tumor model; details: 20/15 mg/kg PO daily for 9 then 12 days

Sequence of wtEGFR (P00533 25-1210): as above

IC50 (wtEGFR): < 200 nM
IC50 (wtERBB2): < 200 nM
IC50 (ERBB2-A775_G776insYVMA): < 200 nM
SMILES: Cc1cc(Nc2ncnn3ccc(C4CN(C(=O)/C=C/CN(C)C)C4)c23)ccc1Oc1ccn2ncnc2c1 [Compound 1, (E)-1-(3-(4-((4-([1,2,4]triazolo[1,5-a]pyridin-7-yloxy)-3-methylphenyl)amino)pyrrolo[2,1-f][1,2,4]triazin-5-yl)azetidin-1-yl)-4-(dimethylamino)but-2-en-1-one]

IC50 (wtEGFR): < 200 nM
IC50 (wtERBB2): < 200 nM
IC50 (ERBB2-A775_G776insYVMA): < 200 nM
SMILES: C=CC(=O)N1CCN(c2ccn3ncnc(Nc4ccc(Oc5ccn6ncnc6c5)c(C)c4)c23)CC1 [Compound 3, 1-(4-(4-((4-([1,2,4]triazolo[1,5-a]pyridin-7-yloxy)-3-methylphenyl)amino)pyrrolo[2,1-f][1,2,4]triazin-5-yl)piperazin-1-yl)prop-2-en-1-one]

IC50 (wtEGFR): < 200 nM
IC50 (wtERBB2): < 200 nM
IC50 (ERBB2-A775_G776insYVMA): < 200 nM
SMILES: C=CC(=O)N1CCC(c2ccn3ncnc(Nc4ccc(Oc5ccn6ncnc6c5)c(C)c4)c23)CC1 [Compound 4, 1-(4-(4-((4-([1,2,4]triazolo[1,5-a]pyridin-7-yloxy)-3-methylphenyl)amino)pyrrolo[2,1-f][1,2,4]triazin-5-yl)piperidin-1-yl)prop-2-en-1-one]

IC50 (wtEGFR): < 200 nM
IC50 (wtERBB2): < 200 nM
IC50 (ERBB2-A775_G776insYVMA): < 200 nM
SMILES: C=CC(=O)N1CC(c2ccn(-c3ccn4ncnc(Nc5ccc(Oc6ccn7ncnc7c6)c(C)c5)c34)n2)C1 [Compound 8, 1-(3-(1-(4-((4-([1,2,4]triazolo[1,5-a]pyridin-7-yloxy)-3-methylphenyl)amino)pyrrolo[2,1-f][1,2,4]triazin-5-yl)-1H-pyrazol-3-yl)azetidin-1-yl)prop-2-en-1-one]

IC50 (wtERBB2): < 200 nM
IC50 (ERBB2-A775_G776insYVMA): < 200 nM
SMILES: Cc1cc(Nc2ncnn3ccc(C4CCCN(C(=O)/C=C/CN(C)C)CC4)c23)ccc1Oc1ccn2ncnc2c1 (centres unmarked) [Compound 12, (E)-1-(4-(4-((4-([1,2,4]triazolo[1,5-a]pyridin-7-yloxy)-3-methylphenyl)amino)pyrrolo[2,1-f][1,2,4]triazin-5-yl)azepan-1-yl)-4-(dimethylamino)but-2-en-1-one]

IC50 (wtERBB2): < 200 nM
IC50 (ERBB2-A775_G776insYVMA): < 200 nM
SMILES: Cc1cc(Nc2ncnn3ccc(C4CC5(C4)CN(C(=O)/C=C/CN(C)C)C5)c23)ccc1Oc1ccn2ncnc2c1 [Compound 13, (E)-1-(6-(4-((4-([1,2,4]triazolo[1,5-a]pyridin-7-yloxy)-3-methylphenyl)amino)pyrrolo[2,1-f][1,2,4]triazin-5-yl)-2-azaspiro[3.3]heptan-2-yl)-4-(dimethylamino)but-2-en-1-one]

IC50 (wtERBB2): < 200 nM
SMILES: Cc1cc(Nc2ncnn3ccc(-c4cnn(CCNC(=O)/C=C/CN(C)C)c4)c23)ccc1Oc1ccn2ncnc2c1 [Compound 14, (E)-N-(2-(4-(4-((4-([1,2,4]triazolo[1,5-a]pyridin-7-yloxy)-3-methylphenyl)amino)pyrrolo[2,1-f][1,2,4]triazin-5-yl)-1H-pyrazol-1-yl)ethyl)-4-(dimethylamino)but-2-enamide]

EGFR kinact (s − 1) (EGFR): 1.1 × 10^−2 s − 1
HER2 vs. EGFR Kinetic Selectivity (EGFR): 47
Ki (EGFR): 680 nM
SMILES: Cc1noc2ccc(C(=O)Nc3ccc4[nH]c(CN5CCCC5)nc4c3)cc12 [ELVN-002]

Kp at 4 h (in vivo): 0.36
SMILES: C=CC(=O)N1CCC(Oc2cc3c(Nc4ccc(Cl)c(Cl)c4F)ncnc3cc2OC)CC1 [Poziotinib]

SMILES: CCOc1cc2ncnc(Nc3ccc(Oc4ccn5ncnc5c4)c(C)c3)c2cc1NC(=O)/C(F)=C/[C@H]1CCCN1C [SPH5030]
TR compared with Compound 5 [1]: significantly less TR than Compound 5

SMILES: Cc1cc(Nc2ncnc3ccc(NC4=NC(C)(C)CO4)cc23)ccc1Oc1ccn2ncnc2c1 [Tucatinib]
TGI (tumor growth inhibition) (HCC1954; HCC1954, 100 mg/kg PO daily for 21 days): 30%
anti-tumor effect (HCC1954; HCC1954, comparator): tumor stasis
anti-tumor effect (FIG. 29) (HCC1954; HCC1954 xenograft, Compound 5 100 and 250 mg/kg, tucatinib 100 mg/kg): did not achieve tumor stasis
TR compared with Compound 5 [1]: significantly less TR than Compound 5
antitumor effect in intracranial model, in words ([2]; NCI-N87-luc intracranial xenograft): only modest single agent effect
Tumor Growth Inhibition ([2]; Day 5): 9%
Tumor Growth Inhibition ([2]; Day 9): −11%
Tumor Growth Inhibition ([2]; Day 13): −14%
Tumor Growth Inhibition ([2]; Day 16): 18%
Tumor Growth Inhibition ([2]; Day 19): 45%
Tumor Growth Inhibition ([2]; Day 23): 25%
Tumor Growth Inhibition ([2]; Day 26): 30%
TGI (tumor growth inhibition) (MDAMB453): 90%
anti-tumor activity, in words (KYSE410): ineffective; also recorded: weak or no activity; also recorded: weak/no activity
TGI (tumor growth inhibition) (BaF3 P95Her2): 99%

SMILES: Cc1nc(NC(=O)N2CCC[C@H]2C(N)=O)sc1-c1ccnc(C(C)(C)C(F)(F)F)c1 [alpilisib]
TGI (JIMT-1): 64%
